Laboratory results taken from EP4768032A1, “RAGE-TARGETED RNAI AGENT AND PHARMACEUTICAL USE THEREOF” (Tuojie Biotech (Shanghai) Co., Ltd., priority 2023, dated 2025).

What follows are substances tested on human RAGE (assay: psiCHECK on-target activity at 9 concentration points in HEK293A cells, dual-luciferase reporter (Example 8)). Settings: psiCHECK system, Table 9.
Format: cell-based
Excerpt: As used herein, the term "inhibit" is used interchangeably with "decrease", "silence", "down-regulate", "repress", and other similar terms, and includes any level of inhibition. Inhibition can be assessed in terms of a decrease in the absolute or relative level of one or more of these variables relative to a control level. The control level can be any type of control level used in the art, such as a pre-dose baseline level or a level determined from an untreated or control (e.g., buffer-only control or inert agent control) treated subject, cell, or sample. […] The inhibition rate of target gene expression can be measured using a Dual-Glo® Luciferase Assay System: the Firefly chemiluminescence value (Fir) and the Renilla chemiluminescence value (Ren) are each read, and the relative value Ratio = Ren/Fir is calculated. In the present disclosure, the ratio of the remaining mRNA expression level (or residual activity%) = Ratio (RNAi agent-treated group)/Ratio (RNAi agent-free control group), and the inhibition rate (%) = 100% - remaining mRNA expression level (%).
RNAi agents were subjected to an in vitro molecular-level simulation of on-target activity screening in HEK293A cells using 9 concentration gradients.
HEK293A cells were cultured at 37 °C with 5% CO2 in a DMEM high-glucose culture medium containing 10% fetal bovine serum. 24 h prior to transfection, the HEK293A cells were seeded into a 96-well plate at a density of 1 × 10^4 cells per well, with each well containing 100 µL of the culture medium.
The cells were co-transfected with the RNAi agents and corresponding plasmids using Lipofectamine2000 (ThermoFisher, 11668019) according to the instructions, with 0.3 µL of Lipofectamine2000 used per well. The amount of plasmids for transfection was 20 ng per well. For on-target sequence plasmids, a total of 9 concentration points were set for the RNAi agents; the highest concentration point final concentration was 20 nM, and a 3-fold serial dilution was performed to obtain 20.0000 nM, 6.6667 nM, 2.2222 nM, 0.7407 nM, 0.2469 nM, 0.0823 nM, 0.0274 nM, 0.0091 nM, and 0.0030 nM. 24 h after transfection, the on-target levels were determined using a Dual-Luciferase Reporter Assay System (Promega, E2940). Table 9. The IC50 activity of RNAi agents in a psiCHECK system
“TJR103636-TJ-16: RNAi agent containing targeting ligand I-14: SS strand SEQ ID NO: 24, AS strand SEQ ID NO: 50 (sense CAGUCGGAGCUAAUGGUGA; antisense UCACCAUUAGCUCCGACUGCA; targeting ligand I-14 conjugated, modification pattern not given here)” was tested, and the IC50 was 0.287 nM. Substance “TJR103633-TJ-16: RNAi agent containing targeting ligand I-14: SS strand SEQ ID NO: 21, AS strand SEQ ID NO: 47 (sense CUGUCAGCAUCAGCAUCAA; antisense UUGAUGCUGAUGCUGACAGCA; targeting ligand I-14 conjugated, modification pattern not given here)” has an IC50 of 0.343 nM. For “TJR103634-TJ-16: RNAi agent containing targeting ligand I-14: SS strand SEQ ID NO: 22, AS strand SEQ ID NO: 48 (sense GACCAACUCUCUCCUGUAA; antisense UUACAGGAGAGAGUUGGUCUG; targeting ligand I-14 conjugated, modification pattern not given here)”, the IC50 was 0.378 nM. With “TJR103638-TJ-16: RNAi agent containing targeting ligand I-14: SS strand SEQ ID NO: 26, AS strand SEQ ID NO: 52 (sense CCUUUUCUUUUUCCCUUGA; antisense UCAAGGGAAAAAGAAAAGGGA; targeting ligand I-14 conjugated, modification pattern not given here)” the IC50 was 0.973 nM. “TJR103637-TJ-16: RNAi agent containing targeting ligand I-14: SS strand SEQ ID NO: 25, AS strand SEQ ID NO: 51 (sense CUUUUCUUUUUCCCUUGAA; antisense UUCAAGGGAAAAAGAAAAGGG; targeting ligand I-14 conjugated, modification pattern not given here)” gave an IC50 of 0.83 nM. “TJR103635-TJ-16: RNAi agent containing targeting ligand I-14: SS strand SEQ ID NO: 23, AS strand SEQ ID NO: 49 (sense AGAGGAGGAGCGUGCAGAA; antisense UUCUGCACGCUCCUCCUCUUC; targeting ligand I-14 conjugated, modification pattern not given here)” gave an IC50 of 0.636 nM.
